In patent US9234242B2, “Methods for treating depression using NCAM peptide mimetics” (THE BOARD OF THE TRUSTEES OF THE LELAND STANFORD JUNIOR …, priority 2005, dated 2016):

How the values were obtained:
Rodents [1] = assay: Forced swim test (FST) after microinjection; type: in vivo, rats; conditions: microinjection (intracerebroventricular), versus controls
Source text: (§1) In another embodiment, the present invention provides methods for altering the behavioral profiles of rats by injecting the rats with FGF2, an NCAM peptide mimetic, and a peptide inhibitor of FGF receptors. Both FGF2 and the NCAM peptide mimetic have antidepressant-like effects in the forced swim test when injected intracerebroventricularly. […] In one embodiment of the invention, ligands that activate FGF receptors are used for their antidepressant effects in the therapeutic treatment of individuals with MDD.
(§2) This is indicative of less depression-like behavior in FGF2 animals.
(§3) Again, this is an index of less depression-like behavior. This is also in the same direction as the FGF2 data, consistent with the fact that both FGF2 and NCAM interact with the FGF receptor.
(§4) These observations are nevertheless consistent with the conclusions drawn from the microinjection studies above.

Rodents [2] = assay: Elevated plus maze (EPM) after microinjection; type: in vivo, rats; conditions: microinjection (intracerebroventricular), versus controls
Source text: as §1, §2, §3, §4

rats = assay: Elevated plus-maze (EPM) and light-dark (LD) anxiety test after chronic administration; type: in vivo; conditions: 5 ng/g i.p. every 48 hours for 3 weeks
Method: Anxiety disorders have a high comorbidity with other neuropsychiatric disorders including Major Depression (MD). […] Rats were placed into “high anxiety” (LR) or “low anxiety” (HR) groups based on their behavior in a variety of motor and behavioral tests. Both groups of animals were administered either FGF2 (5 ng/g) or vehicle by intraperitoneal injection every 48 hours for 3 weeks. One day after the last FGF2 injection, all animals were tested in the elevated plus-maze (EPM) and light-dark (LD) anxiety test.
The apparatus for the EPM test is constructed of black Plexiglass with […] (70 cm from the floor, 45 cm long, and 12 cm wide). Illumination is provided by a 40-watt desk lamp facing a wall and placed behind one of the closed arms. The scientists put the animal inside the system. Animals that are less anxious spend more time in the open arms whereas animals that are more anxious spend less time in the open arms.
The LD test is conducted in a 30×60×30-cm Plexiglas shuttle box with a translucent cover. Each box is divided into two equal-sized compartments by a wall with a 12 cm-wide open door. One compartment is painted white and brightly illuminated, and the other is painted black with very dim light. The time each rat spends in each compartment is monitored by rows of five photocells located 2.5 cm above the grid floor of each compartment. […]

Sprague-Dawley rats = assay: Morris water maze learning and memory test in adults after early postnatal injection; type: in vivo; conditions: 20 ng/g s.c. the day after birth, tested as adults; vehicle-injected rats 25 seconds
Method: (§5) Sprague-Dawley rats were injected with either vehicle or FGF2 (20 ng/g, s.c.) the day after birth and sacrificed after Morris water maze testing as adults. We assessed changes in gene expression using both a candidate approach and a gene discovery approach with laser-capture microdissection of the dentate gyrus followed by microarray analyses.

[3] = system: FGFR2 and FGFR3 exon IIIc:IIIb splice variant ratio; assay: Real time RT-PCR of exon IIIc:IIIb splice variant ratio in frontal cortex, chronic unpredictable stress; type: in vivo, rats; conditions: 5 ng/g i.p. every 48 hours for three weeks
Method: Half of the rats (n=12) were administered vehicle (0.1M PBS with 100 μg/mL bovine serum albumin), and the other half (n=12) were administered human recombinant FGF2 dissolved in vehicle in 5 ng/g dosages (Sigma, St. Louis, Mo.) every 48 hours for three weeks. All treatments were injected intra-peritoneally. During the same three week period as the FGF2 treatments, the vehicle group was either handled (n=6) or exposed to CUS (n=6). Likewise, the FGF2 injected group was either handled (n=6) or exposed to CUS (n=6). […]
Gross dissections were performed on the frontal cortex of all brains. […] Using the Bioanalyzer's concentration readings, the samples were normalized to 25 ng/μL of total RNA per subject and stored at −80° C.
cDNA was synthesized using the iScript cDNA Synthesis Kit (Bio-Rad, Hercules, Calif.). […] The double-stranded cDNA solutions were then analyzed for quality and concentration using Invitrogen's Quant-iT PicoGreen dsDNA kit. […] The fluorescently labeled samples were analyzed with a 1420 Victor^2 Multilabel Counter (EG&G Wallac, Wellesley, Mass.) using the basic Fluorescein protocol. […]
Sequences for rat FGFR2 and FGFR3 exons were obtained from NCBI's Entrez Gene database (www.ncbi.nlm.nih.gov) and the Ensembl-Rat gene database (www.ensembl.org). […] FGFR2 and FGFR3 exon sequences were analyzed for secondary structure using the Mfold nucleic acid folding web server. […]

[4] = system: genes associated with neural plasticity; assay: Long-term changes in hippocampal gene expression (histochemical and RNA expression assays); type: in vivo; conditions: adult rats, 20 ng/g s.c. the day after birth
Method: as §5

Substance | immobility in the FST (Rodents [1]) | time in the center quadrant of the EPM (Rodents [2]) | time in the closed arms of the EPM (Rodents [2]) | time in the open arms of the EPM (Rodents [2]) | climbing in the FST (Rodents [1]) | swimming in the FST (Rodents [1]) | anxiety-reducing effects in innately more anxious (LR) rats (rats; LR versus HR rats) | anxiety versus animals who receive vehicle (rats; time in the light compartment (FIG. 9)) | time on average to find a hidden platform in Morris Water maze test (Sprague-Dawley rats) | effect on the magnitude of ratio changes caused by stress [3] | effect on the IIIc:IIIb ratio in the NS or S group ([3]; P>0.1) | expression of CCK [4] | expression of GAP-43 [4] | expression of NCAM [4] | expression of Rgs4 [4] | expression of SST [4] | expression of Vgf [4] | expression of trkB [4]
NCAM: NCAM (FGL peptide), amino acid sequence=EVYVVAENQQGKSKA (SEQ ID NO:34); interacts with the FGF receptor (NCAM (FGL peptide)) | less immobility | significantly less time | more time (although not significantly more time) | less time | – | – | – | – | – | – | – | – | – | – | – | – | – | –
FGF system peptide inhibitor: FGF system peptide inhibitor, amino acid sequence=HFKDPKRLY; SEQ ID NO:35 (FGF system peptide inhibitor) [reference compound] | more immobility | significantly more time | less time | equal time | significantly less climbing | less swimming | – | – | – | – | – | – | – | – | – | – | – | –
FGF2: FGF receptor ligand; human recombinant FGF2 (Sigma) in Example 6 | less immobility | – | significantly more time | less time | – | more swimming | clearly more pronounced | less anxious | 20 s | nor did it significantly affect | did not alter the IIIc:IIIb ratio significantly | increased | increased | decreased | increased | increased | increased | increased
